Laboratory results taken from the pKa sets of Baltruschat and Czodrowski (2020).

Settings: acidic group

| Structure (SMILES) | pKa |
| --- | --- |
| COc1ccccc1/C=C\C(=O)O | 4.27 |
| O=C(O)C12CCC(C1)C2 | 3.96 |
| CC(N)C(N)=O (stereo not drawn) | 8.02 |
| c1ccc(CCNc2ncnc3nc[nH]c23)cc1 | 10.1 |
| Cc1ccccc1C(O)C(C(=O)O)c1ccc(-c2ccccc2)cc1 (stereo not drawn) | 4.19 |
| Cc1ccc(O)c([O-])c1 | 13.3 |
| O=c1cc(-c2ccc(O)cc2)oc2ccccc12 | 8.27 |
| COc1ccc(S(N)(=O)=O)cc1 | 9.93 |
| Cn1ncnc1/N=N/O | 4.45 |
| C[n+]1cccc(/C=C(/O)c2ccccc2)c1 | 6.75 |
| Cc1cc(S(=O)(=O)Nc2nccs2)ccc1N | 7 |
| Cc1ccc(S(=O)(=O)N[C@@H](CC(N)=O)C(=O)[O-])cc1 | 11.4 |
| Cn1c[nH+]cc1C[C@H]([NH3+])C(=O)O | 1.84 |
| O=C(O)/C=C/c1cccc(O)c1 | 4.4 |
| CC(C)/C=C/C(=O)O | 4.7 |
| O=C(c1ccc(Cl)cc1)c1cc[nH]n1 | 11.9 |
| CCOc1ccc(C(=O)O)c(C)c1 | 4.54 |

| Structure (SMILES) | pKa |
| --- | --- |
| Cc1cc(O)[nH+]c2c1CCO2 | 2.42 |
| Cn1c(N)nc2nc[nH]c2c1=O | 10.4 |
| O=c1oc2cc(O)ccc2cc1-c1nc2cc(Cl)ccc2o1 | 6.8 |
| CC1(C)OC(=O)C[C@H]2[C@@H](C(=O)O)[NH2+]C[C@H]21 | 2.27 |
| Cc1cc([N+](=O)[O-])cc(C)c1O | 7.22 |
| Cc1cccc(O)c1C(=O)O | 3.35 |
| O=S(=O)(O)c1ccc(Br)cc1 | -6.72 |
| COc1cc(CN)ccc1O | 10.5 |
| O=C([O-])C(CO)[NH2+]Cc1cc([N+](=O)[O-])ccc1O (stereo not drawn) | 6.15 |
| Nc1nc2cccc[n+]2o1 | 7.18 |
| CC(C)C(Br)C(=O)O (stereo not drawn) | 2.82 |
| O=[Se](O)c1ccccc1 | 4.79 |
| N#Cc1ccc(NS(=O)(=O)c2ccccc2)cc1 | 6.78 |
| CNc1cc[n+](O)cc1 | 3.85 |
| Cc1ccc(O)cc1Cc1cc([N+](=O)[O-])ccc1O | 7.03 |
| O=C([O-])[C@@H]1CC[C@@H](C(=O)O)[Se]1 | 4.35 |
| O=C(O)CCC(=O)c1ccc(-c2ccccc2)cc1 | 4.46 |

Same assay, conditions: basic group

| Structure (SMILES) | pKa |
| --- | --- |
| CN1C2=CCCC1CCC2 (stereo not drawn) | 8.8 |
| Cn1cnc2c([O-])ncnc21 | 9.11 |
| c1ccc(CCNc2ncnc3nc[nH]c23)cc1 | 4.2 |
| c1coc(CNCCNCc2ccco2)c1 | 8.61 |
| CC1(N)C[C@]1(C)N (stereo partly drawn) | 9.03 |
| COc1ccc2c3c1O[C@@H]1C(=O)CC[C@]4(O)[C@H](C2)N(C)CC[C@@]314 | 8.6 |
| Nc1c2ccccc2nc2c(N)cccc12 | 9.3 |
| CCCNc1ccncc1S(=O)(=O)NC(=O)NC(C)C | 7.58 |
| CC(C)[NH2+]CC(O)c1cccc(N)c1 (stereo not drawn) | 4.22 |
| Nc1nc([O-])c2ncn([C@@H]3C=C[C@H](CO)C3)c2n1 | 9.68 |
| CC(C)(C)NC[C@H](O)COc1nsnc1N1CCOCC1 | 9.7 |
| Cc1cnnc(C)c1 | 4.11 |
| CCNCC(=O)Nc1c(C)cccc1C | 8.06 |
| CCN(CC)C/C(C)=N/[O-] | 11 |
| C=C(C)C(=O)OCCN(CC)CC | 8.66 |
| CCCCCCCCCCCCN(CCO)CC(O)CC (stereo not drawn) | 6.4 |
| COCC(C)CN(C)C (stereo not drawn) | 9.69 |

| Structure (SMILES) | pKa |
| --- | --- |
| Cc1cccc(Cl)c1/C(=N/CCCN(C)C)c1ccccc1 | 8.8 |
| Cc1ccnc2ccccc12 | 5.51 |
| Cc1cc(C)n(-c2cc(C)n(C)n2)n1 | 2.19 |
| Cn1c(N)nc2nc[nH]c2c1=O | 3.2 |
| Cc1ccc(NCO)cc1 | 3.42 |
| CN1CCOCC1 | 7.66 |
| [NH3+]c1ccccc1-c1nc2ccccc2s1 | -1.8 |
| Nc1cccc(C(=O)[O-])c1 | 4.7 |
| CN(C)CCOCCN(C)C | 9.8 |
| O=C(N[C@@H]1C[C@H]2CC[C@@H](C1)N2Cc1ccccc1)c1cccc2c1OCCO2 | 8.68 |
| COc1cc(CN)ccc1O | 8.94 |
| C[NH+](C)c1ccc(/C=C/c2ccncc2)cc1 | 3.42 |
| CSc1nc(N)n[nH]1 | 3.27 |
| O=C(Nc1ccccn1)c1ccccc1 | 3.33 |
| O=[Se](O)c1ccccc1 | -0.9 |
| O=C([O-])C#CCN1CCOCC1 | 5.57 |
| c1ccc(CN(CC2=NCCN2)c2ccccc2)cc1 | 10.1 |
